How the values were obtained:
Type in all cases: cell-based
K562 cells = test: Cell growth inhibitory activity assay (CellTiter-Glo), K562 cells; details: Homo sapiens, 72 h, CTG cell viability
Method in brief: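 K562 cells in logarithmic growth were counted, diluted and plated in 96-well plates, with medium-only blanks and a separate T0 plate read by CTG the following day. After overnight incubation, graded compound concentrations were added for 72 h, with 0.5% DMSO wells as growth controls. Luminescence was read on a Biotek cytation3.0, and IC50 came from nonlinear fitting in GraphPad Prism 7.0.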

Ba/F3 BCR-ABL1 WT = molecular target: T1, Ba/F3 BCR-ABL1 WT (Homo sapiens, UniProt P00519+P11274); test: Cell growth inhibitory activity assay (CellTiter-Glo), Ba/F3 BCR-ABL1 WT cells; details: 72 h, CTG cell viability
T1 construct: BCR (N-terminal fusion partner of the oncoprotein); expressed in transfected cells; host or cells: Ba/F3 (lentiviral transduction, monoclonal line)
Method in brief: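 Ba/F3 lines stably transduced by lentivirus with WT or mutant BCR-ABL1, alongside untransduced parental Ba/F3, were seeded and incubated overnight at 37 °C, 5% CO2, then exposed to serially diluted compound for 72 h. Viability was read as ATP by CellTiter-Glo luminescence against a day-of-dosing T0 plate; IC50 from four-parameter nonlinear fit.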

Ba/F3 BCR-ABL1 T315I = molecular target: T2, Ba/F3 BCR-ABL1 T315I (Homo sapiens, UniProt P00519+P11274, T315I); test: Cell growth inhibitory activity assay (CellTiter-Glo), Ba/F3 BCR-ABL1 T315I cells; details: 72 h, CTG cell viability
T2 construct: BCR (N-terminal fusion partner of the oncoprotein); expressed in transfected cells; host or cells: Ba/F3 (lentiviral transduction, monoclonal line)
Method in brief: (§1)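 IC50 values come from nonlinear fitting of % inhibition against log concentration, with viability taken as ATP content by CellTiter-Glo. Parental Ba/F3 or Ba/F3 monoclonal lines expressing lentivirally introduced mutant BCR-ABL1 were dosed for 72 h; controls included 0.5% DMSO wells and a T0 plate.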

Ba/F3 parental cells = test: Cell growth inhibitory activity assay (CellTiter-Glo), Ba/F3 parental cells; details: Mus musculus, BaF3, 72 h, CTG cell viability, read-out: IC50 Ba/F3 BCR-ABL1 Parental
Method in brief: as §1

[1] = molecular target: T3, Ba/F3 BCR-ABL1 E255V/T315I (Homo sapiens, UniProt P00519+P11274, E255V/T315I); test: Cell growth inhibitory activity assay (CellTiter-Glo), Ba/F3 BCR-ABL1 E255V/T315I cells; details: 72 h, CTG cell viability
T3 construct: BCR (N-terminal fusion partner of the oncoprotein); expressed in transfected cells; host or cells: Ba/F3 (lentiviral transduction, monoclonal line)
Description: (§2) In this assay, the Celltiter-Glo (CTG) kit provided by Promega was used, and it is a homogeneous cell viability assay method. The cell viability of cultured cells was measured by quantifying ATP. K562 cells were purchased from Nanjing Kebai, product number CBP60529; Ba/F3 parental cells were purchased from RIKEN BRC, product number RCB0805; other cells containing BCR-ABL1 WT, BCR-ABL1 T315I, BCR-ABL1 T315M, BCR-ABL1 Y253H/E255K, BCR-ABL1 E255V/T3151, BCR-ABL1 A424T, BCR-ABL1 A337V, BCR-ABL1 P465S, BCR-ABL1 V468F, and BCR-ABL1 I502L were all monoclonal engineered cell lines obtained by transducting Ba/F3 parental cells with the lentivirus plasmids containing WT or corresponding mutated BCR-ABL1.
(§3) The steps of cell viability assay are as follows: • a) Cells in logarithmic growth phase were collected. Cell suspension was prepared and the cells were counted. Concentration of the cells was calculated. • b) The cell suspension was diluted to the required concentration and then added to the middle wells of a 96-well plate, and PBS was added to the edge wells. The wells with no cells and only culture medium were used as blank controls. • c) In addition to the cell plate used for compound analysis, another 96-well plate was prepared as a T0 plate, and 3-6 blank wells and 3-6 cell wells were added. The next day, CTG was used to test the cell viability as the T0 viability value of the cells. • d) The cell plate was incubated at 37 °C in a 5% CO2 incubator overnight. • e) The next day, each concentration of a compound subjected to a gradient dilution was added, and the cell plate was incubated at 37 °C in a 5% CO2 incubator for 72 h. The wells with no compound and only 0.5% DMSO were used as positive controls for cell growth. • f) CTG reagent (CellTiter-Glo kit) was added according to the manufacturer's instructions to test the cell viability value. • g) The plate was read using Biotek cytation3.0 microplate reader and the data were exported. • h) IC50 was calculated using GraphPad Prism 7.0 software.
(§4) The IC50 (half-maximal inhibitory concentration) of the compound was obtained using the following nonlinear fitting formula: Y = Bottom + (Top−Bottom)/(1+10^(∧)((LogIC50−X)*HillSlope)) [formula] • X: Log value of the compound concentration • Y: Inhibition rate (% inhibition) • Top: Maximum response • Bottom: Baseline response • HillSlope: Slope of the curve
(§5) The formula for calculating cell inhibition rate (inhibition rate %) was: [formula]

Ba/F3 BCR-ABL1 A424T = molecular target: T4, Ba/F3 BCR-ABL1 A424T (Homo sapiens, UniProt P00519+P11274, A424T); test: Cell growth inhibitory activity assay (CellTiter-Glo), Ba/F3 BCR-ABL1 A424T cells; details: 72 h, CTG cell viability
T4 construct: BCR (N-terminal fusion partner of the oncoprotein); expressed in transfected cells; host or cells: Ba/F3 (lentiviral transduction, monoclonal line)
Description: as §2, §3, §4, §5

Ba/F3 BCR-ABL1 A337V = molecular target: T5, Ba/F3 BCR-ABL1 A337V (Homo sapiens, UniProt P00519+P11274, A337V); test: Cell growth inhibitory activity assay (CellTiter-Glo), Ba/F3 BCR-ABL1 A337V cells; details: 72 h, CTG cell viability
T5 construct: BCR (N-terminal fusion partner of the oncoprotein); expressed in transfected cells; host or cells: Ba/F3 (lentiviral transduction, monoclonal line)
Description: as §2, §3, §4, §5

Ba/F3 BCR-ABL1 P465S = molecular target: T6, Ba/F3 BCR-ABL1 P465S (Homo sapiens, UniProt P00519+P11274, P465S); test: Cell growth inhibitory activity assay (CellTiter-Glo), Ba/F3 BCR-ABL1 P465S cells; details: 72 h, CTG cell viability
T6 construct: BCR (N-terminal fusion partner of the oncoprotein); expressed in transfected cells; host or cells: Ba/F3 (lentiviral transduction, monoclonal line)
Description: as §2, §3, §4, §5

Ba/F3 BCR-ABL1 V468F = molecular target: T7, Ba/F3 BCR-ABL1 V468F (Homo sapiens, UniProt P00519+P11274, V468F); test: Cell growth inhibitory activity assay (CellTiter-Glo), Ba/F3 BCR-ABL1 V468F cells; details: 72 h, CTG cell viability
T7 construct: BCR (N-terminal fusion partner of the oncoprotein); expressed in transfected cells; host or cells: Ba/F3 (lentiviral transduction, monoclonal line)
Description: as §2, §3, §4, §5

Ba/F3 BCR-ABL1 I502L = molecular target: T8, Ba/F3 BCR-ABL1 I502L (Homo sapiens, UniProt P00519+P11274, I502L); test: Cell growth inhibitory activity assay (CellTiter-Glo), Ba/F3 BCR-ABL1 I502L cells; details: 72 h, CTG cell viability
T8 construct: BCR (N-terminal fusion partner of the oncoprotein); expressed in transfected cells; host or cells: Ba/F3 (lentiviral transduction, monoclonal line)
Description: as §2, §3, §4, §5

[2] = molecular target: T9, Ba/F3 BCR-ABL1 Y253H/E255K (Homo sapiens, UniProt P00519+P11274, E255K/Y253H); test: Cell growth inhibitory activity assay (CellTiter-Glo), Ba/F3 BCR-ABL1 Y253H/E255K cells; details: 72 h, CTG cell viability
T9 construct: BCR (N-terminal fusion partner of the oncoprotein); expressed in transfected cells; host or cells: Ba/F3 (lentiviral transduction, monoclonal line)
Description: as §2, §3, §4, §5

Ba/F3 BCR-ABL1 T315M = molecular target: T10, Ba/F3 BCR-ABL1 T315M (Homo sapiens, UniProt P00519+P11274, T315M); test: Cell growth inhibitory activity assay (CellTiter-Glo), Ba/F3 BCR-ABL1 T315M cells; details: 72 h, CTG cell viability
T10 construct: BCR (N-terminal fusion partner of the oncoprotein); expressed in transfected cells; host or cells: Ba/F3 (lentiviral transduction, monoclonal line)
Description: as §2, §3, §4, §5

`CN1Cc2ncc(-c3cc(C(=O)Nc4ccc(OC(F)(F)Cl)cc4)cc4c3C(C)(C)C(=O)N4)cc2C1=O` [T-7, N-(4-(chlorodifluoromethoxy)phenyl)-3,3-dimethyl-4-(6-methyl-5-oxo-6,7-dihydro-5H-pyrrolo[3,4-b]pyridin-3-yl)-2-oxoindoline-6-carboxamide] gave an IC50 (K562 cells) of no more than 5 nM, an IC50 (Ba/F3 BCR-ABL1 WT) of no more than 5 nM and an IC50 (Ba/F3 BCR-ABL1 T315I) of 5 to 50 nM. It also gave an IC50 (Ba/F3 parental cells) greater than 1000 nM, an IC50 [1] of 5 to 50 nM and an IC50 (Ba/F3 BCR-ABL1 A424T) greater than 1000 nM. It also gave an IC50 (Ba/F3 BCR-ABL1 A337V) greater than 1000 nM, an IC50 (Ba/F3 BCR-ABL1 P465S) greater than 1000 nM and an IC50 (Ba/F3 BCR-ABL1 V468F) of 50 to 1000 nM. For the same compound, the IC50 (Ba/F3 BCR-ABL1 I502L) was 50 to 1000 nM.

`C[C@@H]1COCc2nc3cc(C(=O)Nc4ccc(OC(F)(F)Cl)cc4)cc(-c4cnc5c(c4)-c4nn(-c6ncc(C#N)cn6)cc4C5)c3n21` [T-78, (R)-N-(4-(chlorodifluoromethoxy)phenyl)-6-(2-(5-cyanopyrimidin-2-yl)-2,4-dihydropyrazolo[3',4':3,4]cyclopenta[1,2-b]pyridin-7-yl)-4-methyl-3,4-dihydro-1H-benzo[4,5]imidazo[2,1-c][1,4]oxazine-8-carboxamide] showed an IC50 (K562 cells) of no more than 5 nM, an IC50 (Ba/F3 BCR-ABL1 WT) of no more than 5 nM and an IC50 (Ba/F3 BCR-ABL1 T315I) of no more than 5 nM. It also gave an IC50 (Ba/F3 parental cells) greater than 1000 nM, an IC50 [2] of no more than 5 nM and an IC50 [1] of no more than 5 nM.

`C[C@@H]1COCc2nc3cc(C(=O)Nc4ccc(OC(F)(F)Cl)cc4)cc(-c4cnc5c(c4)-c4nc(N)sc4C5)c3n21` [T-114, (R)-6-(2-amino-4H-thiazolo[4',5':3,4]cyclopenta[1,2-b]pyridin-7-yl)-N-(4-(chlorodifluoromethoxy)phenyl)-4-methyl-3,4-dihydro-1H-benzo[4,5]imidazo[2,1-c][1,4]oxazine-8-carboxamide] was tested, and the IC50 (K562 cells) was no more than 5 nM, the IC50 (Ba/F3 BCR-ABL1 WT) was no more than 5 nM and the IC50 (Ba/F3 BCR-ABL1 T315I) was 5 to 50 nM. The IC50 (Ba/F3 BCR-ABL1 T315M) was greater than 1000 nM, the IC50 (Ba/F3 parental cells) was greater than 1000 nM and the IC50 [2] was 5 to 50 nM. It also gave an IC50 [1] of 50 to 1000 nM.

Work on `CC(=O)NC1CCC2c3cc(C(=O)Nc4ccc(OC(F)(F)Cl)cc4)cc(-c4cnc5c(c4)C(=O)N(C)C5)c3N(C(C)C)C12` (racemic) [T-11, 3-acetamido-N-(4-(chlorodifluoromethoxy)phenyl)-4-isopropyl-5-(6-methyl-5-oxo-6,7-dihydro-5H-pyrrolo[3,4-b]pyridin-3-yl)-1,2,3,3a,4,8b-hexahydrocyclopenta[b]indole-7-carboxamide] yielded an IC50 (K562 cells) of no more than 5 nM, an IC50 (Ba/F3 BCR-ABL1 WT) of no more than 5 nM and an IC50 (Ba/F3 BCR-ABL1 T315I) of 50 to 1000 nM. It also gave an IC50 (Ba/F3 BCR-ABL1 T315M) greater than 1000 nM, an IC50 (Ba/F3 parental cells) greater than 1000 nM and an IC50 [2] of 50 to 1000 nM. The IC50 [1] was 50 to 1000 nM, the IC50 (Ba/F3 BCR-ABL1 A424T) was 50 to 1000 nM and the IC50 (Ba/F3 BCR-ABL1 V468F) was greater than 1000 nM.

`C[C@@H]1CC[S+]([O-])c2nc3cc(C(=O)Nc4ccc(OC(F)(F)Cl)cc4)cc(-c4cnccn4)c3n21` (stereo partly drawn) [T-117, (4R)-N-(4-(chlorodifluoromethoxy)phenyl)-4-methyl-6-(pyrazin-2-yl)-3,4-dihydro-2H-benzo[4,5]imidazo[2,1-b][1,3]thiazine-8-carboxamide 1-oxide] showed an IC50 (K562 cells) of no more than 5 nM, an IC50 (Ba/F3 BCR-ABL1 WT) of no more than 5 nM and an IC50 (Ba/F3 BCR-ABL1 T315I) of 5 to 50 nM. For the same compound, the IC50 (Ba/F3 BCR-ABL1 T315M) was greater than 1000 nM and the IC50 (Ba/F3 parental cells) was greater than 1000 nM.

Work on `CC(C)n1cnc2cc(C(=O)Nc3ccc(OC(F)(F)Cl)cc3)cc(-c3cnc4c(c3)C(=O)N(C)C4)c21` [T-2, N-(4-(chlorodifluoromethoxy)phenyl)-1-isopropyl-7-(6-methyl-5-oxo-6,7-dihydro-5H-pyrrolo[3,4-b]pyridin-3-yl)-1H-benzo[d]imidazole-5-carboxamide] yielded an IC50 (K562 cells) of no more than 5 nM, an IC50 (Ba/F3 BCR-ABL1 WT) of no more than 5 nM and an IC50 (Ba/F3 BCR-ABL1 T315I) of 5 to 50 nM. The IC50 (Ba/F3 parental cells) was greater than 1000 nM, the IC50 [1] was 5 to 50 nM and the IC50 (Ba/F3 BCR-ABL1 A424T) was 50 to 1000 nM. The IC50 (Ba/F3 BCR-ABL1 A337V) was 50 to 1000 nM, the IC50 (Ba/F3 BCR-ABL1 P465S) was 50 to 1000 nM and the IC50 (Ba/F3 BCR-ABL1 V468F) was 50 to 1000 nM. It also gave an IC50 (Ba/F3 BCR-ABL1 I502L) of 50 to 1000 nM.

From patent publication EP4768484A1, “HETEROCYCLIC FUSED RING COMPOUND, AND COMPOSITION AND USE THEREOF” (Shenzhen TargetRx, Inc., priority 2023, dated 2025)
